Read-outs that look alike come from different tables or passages of the source. One block for each compound: values may come before it.
What was measured:
INDY = target: T1, INDY (Drosophila melanogaster, UniProt Q9VVT2); test: Inhibition of [14C] succinate uptake in Xenopus oocytes injected with Indy mRNA; type: cell-based
T1 construct: expressed in transfected cells; host or cells: Xenopus laevis oocytes (stage V and VI) injected with Indy mRNA
Experimental: Stage V and VI oocytes from Xenopus laevis were dissected and defoliculated. The oocytes were injected with 25–50 ng of Indy mRNA 1 day after isolation. Nutrient uptake was measured 6 to 7 days later. The oocytes were maintained at 18° C. in Barth's solution containing […] gentamycin sulfate, 2.5 mM sodium pyruvate, and 5% heat-inactivated horse serum (Coady et al., Arch. Biochem. Biophys. 283: 130–134, 1990; Pajor and Wright, J. Biol. Chem 26:, 3557–3560, 1992).
Transport measurements were performed as in Pajor, J. Biol. Chem. 270: 5779–5785, 1995. Groups of oocytes were first washed in choline buffer to remove the serum. Transport was initiated by adding 0.4 ml of [^14C] succinate or [^14C] citrate in buffer A. Buffer A comprises 100 mM NaCl, 2 mM KCl, 1 mM MgCl2, and 10 mM HEPES-Tris (pH 7.5). Buffer B is the same as buffer A except the NaCl is replaced by 100 mM choline Cl. For other cation replacement studies, the sodium was replaced by equimolar amounts of the other cations, as their chloride salts. At the completion of the transport time, the nutrient uptake was stopped with 4 washes of 4 ml of ice-cold buffer B. To count the amount of [^14C] taken up by the oocyte, each oocyte was dissolved in 0.5 ml of 10% SDS, and the [^14C] assayed by scintillation counting.
Studies of sodium dicarboxylate cotransporters have indicated a broad range of specificity for di- and tri-carboxylic acids and the exclusion of monocarboxylic acids. The transport specificity of Indy was thus determined as the ability of various compounds to inhibit the uptake of [^14C] succinate. The test inhibitors were added at a concentration of 1 mM, approximately a 100-fold excess of inhibitor.
The relative affinity of INDY for succinate and citrate was determined by adding a constant amount of [^14C] succinate and increasing concentrations of citrate to oocytes expressing INDY.
To further characterize INDY, inhibitors of transport were added to the Indy oocyte system. P-aminohippuric Acid (PAH) is a reference compound used to study transport mechanisms. 4,4′-Diisothyocyanostilbene-2,2′-disulfonic acid (DIDS) is a specific inhibitor of channels. Phloretin is an inhibitor of channels that is known to block protein kinase C.

[1] = target: T2, rat sodium dicarboxylate cotransporter (Rattus norvegicus, UniProt P70545); details: cited from earlier work
T2 sequence (P70545 1-587): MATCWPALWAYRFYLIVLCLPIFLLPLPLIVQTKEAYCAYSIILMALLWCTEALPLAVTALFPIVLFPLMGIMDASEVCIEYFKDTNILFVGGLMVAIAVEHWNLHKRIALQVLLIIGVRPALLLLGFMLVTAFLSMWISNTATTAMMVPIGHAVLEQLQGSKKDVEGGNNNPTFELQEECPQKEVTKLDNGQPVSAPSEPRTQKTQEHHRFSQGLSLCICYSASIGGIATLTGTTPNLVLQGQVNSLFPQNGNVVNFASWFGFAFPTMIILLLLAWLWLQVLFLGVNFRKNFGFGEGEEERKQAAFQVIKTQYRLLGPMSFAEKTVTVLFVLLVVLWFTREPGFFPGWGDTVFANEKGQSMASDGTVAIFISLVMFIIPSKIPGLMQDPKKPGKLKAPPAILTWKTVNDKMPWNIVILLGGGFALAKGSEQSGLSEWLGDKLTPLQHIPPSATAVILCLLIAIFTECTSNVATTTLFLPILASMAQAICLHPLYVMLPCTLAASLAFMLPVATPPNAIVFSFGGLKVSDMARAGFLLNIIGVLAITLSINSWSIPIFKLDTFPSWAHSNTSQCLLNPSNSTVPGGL

[2] = test inhibitor at 1 mM, approximately 100-fold excess, FIG. 14

T1 sequence (Q9VVT2 19-590 limits assumed): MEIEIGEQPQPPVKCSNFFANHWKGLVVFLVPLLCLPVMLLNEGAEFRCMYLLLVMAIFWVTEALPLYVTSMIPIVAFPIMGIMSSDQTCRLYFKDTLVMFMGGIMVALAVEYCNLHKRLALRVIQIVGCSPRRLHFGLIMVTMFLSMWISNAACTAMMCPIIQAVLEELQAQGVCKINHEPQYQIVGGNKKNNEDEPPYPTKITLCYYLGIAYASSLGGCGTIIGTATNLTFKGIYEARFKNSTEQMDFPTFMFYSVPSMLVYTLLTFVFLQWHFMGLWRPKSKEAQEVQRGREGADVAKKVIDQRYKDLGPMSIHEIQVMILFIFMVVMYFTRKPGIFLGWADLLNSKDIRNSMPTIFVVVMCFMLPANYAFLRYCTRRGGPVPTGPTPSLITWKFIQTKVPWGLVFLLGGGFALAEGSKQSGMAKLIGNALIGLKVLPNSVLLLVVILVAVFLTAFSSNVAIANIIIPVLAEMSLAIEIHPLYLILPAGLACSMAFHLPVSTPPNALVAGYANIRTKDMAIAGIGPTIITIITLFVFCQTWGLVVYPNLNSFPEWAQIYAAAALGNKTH

- inhibition of [14C] succinate uptake (INDY; [2]): ~100%
Compound: O=C(O)CCC(=O)O [succinate]

- effect on succinate transport (in words) (INDY; 10 mM PAH, FIG. 18): no effect
Compound: Nc1ccc(C(=O)NCC(=O)O)cc1 [PAH, P-aminohippuric Acid]

- inhibition of [14C] succinate uptake (INDY; [2]): ~100%
Compound: O=C(O)/C=C/C(=O)O [fumarate]

- inhibition at 100 µM (INDY; citrate at 0.1 mM, FIG. 17): ~50%
- inhibition at 1000 µM (INDY; citrate at 1 mM, FIG. 17, read-out: inhibition of succinate uptake): ~90%
- inhibition of succinate uptake (in words) (INDY; citrate at 10 mM, FIG. 17): completely inhibits
- inhibition at 1000 µM (INDY; test inhibitor at 1 mM, approximately 100-fold excess, FIG. 14, read-out: inhibition of [14C] succinate uptake): ~100%
Compound: O=C(O)CC(O)(CC(=O)O)C(=O)O [citrate]

Second part, the compound before the results:

Compound: N[C@@H](CCC(=O)O)C(=O)O [glutamate]
- inhibition of succinate transport (in words) (INDY; [2]): little inhibition

Compound: O=C(O)CCC(=O)C(=O)O [alpha-ketoglutarate]
- inhibition of [14C] succinate uptake (INDY; [2]): ~100%

Compound: O=S(=O)(O)O [sulfate]
- inhibition of succinate transport (in words) (INDY; [2]): little inhibition

Compound: O=S(=O)(O)c1cc(N=C=S)ccc1C=Cc1ccc(N=C=S)cc1S(=O)(=O)O [DIDS, 4,4′-Diisothyocyanostilbene-2,2′-disulfonic acid]
- inhibition of succinate transport (INDY; 0.1 mM DIDS, FIG. 18): 80%

Compound: CC(O)C(=O)O (centres unmarked) [lactate]
- inhibition of succinate transport (in words) (INDY; [2]): little inhibition

Compound: O=C(CCc1ccc(O)cc1)c1c(O)cc(O)cc1O [phloretin, Phloretin]
- effect on succinate transport (in words) (INDY; 1 mM phloretin, FIG. 18): no effect
- effect on inward and outward currents in sodium-dependent transport [1]: inhibit both inward and outward currents
